Measured values: ChEMBL document CHEMBL1201862, “PubChem BioAssay data set” (2004)
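Compound exposure: 48 hours, 5 concentrations, 96-well plates. Here, GI50 denotes the concentration required for 50% inhibition of growth.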 Active and inactive are the calls of the source. Rule as the data show it: active = GI50 up to about 1.1 µM and inactive = higher. Non-standard residues stand in square brackets, D forms with d. Residues, ends and D or L forms follow the SMILES beside them. *: point of attachment. NMeF = CN[CH](Cc1ccccc1)C(=O)O; NMeV = CN[CH](C(=O)O)C(C)C; Boc = CC(C)(C)OC(=O)*

Tests used:
Test in all cases: NCI anticancer screen, dose series, 48 h
[1] = system: HCT-116
[2] = system: HCC 2998
[3] = system: OVCAR-5
[4] = system: SW-620
[5] = system: SK-MEL-2
[6] = system: SR
[7] = system: OVCAR-3
[8] = system: COLO 205
[9] = system: SK-MEL-5
[10] = system: A549
[11] = system: SK-MEL-28
[12] = system: HOP-92
[13] = system: CCRF-CEM
[14] = system: M14
[15] = system: A498
[16] = system: NCI-H460
[17] = system: CAKI-1

Measured: GI50

CCOC(=O)c1ccc(N2C(=O)Cc3ccccc3C2=O)cc1
inactive: [1] > 100 µM | [2] > 100 µM | [3] > 100 µM | [4] > 100 µM | [5] > 100 µM | [6] > 100 µM | [7] > 100 µM | [8] > 10 µM | [9] > 100 µM | [10] > 100 µM | [11] > 100 µM

C=CCO/N=C(\OC(=O)c1ccc([N+](=O)[O-])cc1)c1ccccc1
inactive: [2] > 100 µM | [3] > 100 µM | [12] > 100 µM | [4] > 100 µM | [5] > 100 µM | [7] > 100 µM | [13] > 100 µM | [8] > 100 µM | [14] > 100 µM | [15] > 100 µM | [9] > 100 µM | [10] > 100 µM | [16] > 100 µM | [17] > 100 µM | [11] > 100 µM

COC(=O)C1=CC2OC1(C)C1(CC1)C2=O (stereo not given)
inactive: [1] 13.8 µM | [2] 18.3 µM | [3] 23.8 µM | [4] 14.7 µM | [5] > 10 µM | [6] 10.3 µM | [7] 16.2 µM | [13] 5.6 µM | [8] 13.5 µM | [14] 13.5 µM | [9] > 10 µM | [10] 24.3 µM | [16] 22.6 µM | [17] 16 µM

[N-]=[N+]=Nc1cc(=O)oc2ccccc12
inactive: [1] > 100 µM | [3] > 100 µM | [4] > 100 µM | [5] > 100 µM | [6] 48.9 µM | [13] > 100 µM | [8] > 100 µM | [14] > 100 µM | [9] > 100 µM | [10] > 100 µM | [16] > 100 µM | [17] > 100 µM | [11] > 100 µM

O=C(O)c1ccc(NC(=O)C2C(=O)C(=O)N(c3ccc(C(=O)O)cc3)C2=O)cc1 (stereo not given)
inactive: [1] > 100 µM | [2] > 100 µM | [3] > 100 µM | [12] > 100 µM | [4] > 100 µM | [5] > 100 µM | [7] > 100 µM | [13] > 100 µM | [8] > 100 µM | [15] > 100 µM | [10] > 100 µM | [16] > 100 µM | [17] > 100 µM | [11] > 100 µM

O=C1C2=C(CCC2)Nc2cccc3ncn1c23
inactive: [1] 34 µM | [2] > 100 µM | [3] 15.9 µM | [4] 70.1 µM | [5] 56.5 µM | [6] > 100 µM | [13] > 100 µM | [8] 43.4 µM | [9] 69.5 µM | [10] 33.7 µM | [16] 33.7 µM | [11] 61.9 µM

COC(=O)c1ccccc1NC(=O)C(=O)Cc1nc2c3c(ccc2nc1O)C(=O)c1ccccc1C3=O
inactive: [1] 9.29 µM | [2] 16.8 µM | [3] 79.4 µM | [12] 15.8 µM | [4] 5.56 µM | [5] 15 µM | [7] 15 µM | [13] 3.75 µM | [8] 15.8 µM | [14] 12.7 µM | [15] 35.1 µM | [9] 2.99 µM | [10] 14 µM | [16] 16.2 µM | [17] 10.9 µM | [11] 15.7 µM

O=C(CC(=O)C1CCOC1=O)C(=O)Nc1cccc(Cl)c1 (stereo not given)
inactive: [1] > 100 µM | [2] > 100 µM | [3] > 100 µM | [12] > 100 µM | [4] > 100 µM | [5] > 100 µM | [7] > 100 µM | [8] > 100 µM | [14] > 100 µM | [15] > 100 µM | [9] > 100 µM | [10] > 100 µM | [16] > 100 µM | [17] > 100 µM | [11] > 100 µM

Cc1ccc(-c2nc3ccccc3c(=O)n2NC2OC(CO)C(O)C(O)C2O)cc1 (stereo not given)
inactive: [1] > 100 µM | [2] > 100 µM | [3] > 100 µM | [12] > 100 µM | [4] > 100 µM | [5] > 100 µM | [7] > 100 µM | [13] > 100 µM | [8] > 100 µM | [14] > 100 µM | [15] > 100 µM | [9] > 100 µM | [10] > 100 µM | [16] > 100 µM | [17] 39.6 µM | [11] > 100 µM

COC(=O)C1CCc2c(OC)ccc(OC)c2C1=O (stereo not given)
inactive: [1] > 100 µM | [2] > 100 µM | [3] > 100 µM | [12] > 100 µM | [4] > 100 µM | [5] > 100 µM | [7] > 100 µM | [13] > 100 µM | [8] > 100 µM | [14] > 100 µM | [15] > 100 µM | [9] > 100 µM | [10] > 100 µM | [16] > 100 µM | [17] > 100 µM | [11] > 100 µM

[N-]=[N+]=Nc1c(Br)c(=O)[nH]c(=O)n1COCCO
inactive: [1] > 100 µM | [2] > 100 µM | [3] > 100 µM | [12] > 100 µM | [4] > 100 µM | [6] > 100 µM | [7] > 100 µM | [13] 63.4 µM | [8] > 100 µM | [14] > 100 µM | [9] > 100 µM | [10] > 100 µM | [16] > 100 µM | [17] > 100 µM | [11] > 100 µM

NC(CCC(=O)NC(CSSCCCCS(=O)O)C(=O)NCC(=O)O)C(=O)O (stereo not given)
inactive: [1] > 100 µM | [2] > 100 µM | [3] > 100 µM | [4] > 100 µM | [5] > 100 µM | [7] > 100 µM | [13] > 100 µM | [8] > 100 µM | [14] > 100 µM | [15] > 100 µM | [9] > 100 µM | [10] > 100 µM | [16] > 100 µM | [17] > 100 µM | [11] > 100 µM

CC1=NN(C(=O)c2ccc(Cl)cc2)C(=O)/C1=C/c1ccccc1O
inactive: [1] > 100 µM | [2] > 100 µM | [3] > 100 µM | [12] > 100 µM | [4] > 100 µM | [5] > 100 µM | [7] > 100 µM | [13] > 100 µM | [8] > 100 µM | [14] > 100 µM | [15] > 100 µM | [9] > 100 µM | [10] > 100 µM | [16] > 100 µM | [17] > 100 µM | [11] > 100 µM

CC(C)C(NC(=O)OC(C)(C)C)C(=O)N(C)C(Cc1ccccc1)C(=O)N(C)C(C(=O)N(C)C(C(=O)O)C(C)C)C(C)C (stereo not given) (Boc-V[NMeF][NMeV][NMeV]-OH; configuration not given here)
inactive: [1] > 100 µM | [2] > 100 µM | [4] > 100 µM | [6] > 100 µM | [7] > 100 µM | [13] > 100 µM | [8] > 100 µM | [14] > 100 µM | [9] > 100 µM | [10] > 100 µM | [16] > 100 µM | [11] > 100 µM
